Reference: patent US20020028851A1, “Guanylhydrazones and their use to treat inflammatory conditions” (priority 1994, published 2002)
Values joined by “and” are separate entries in the source; they are usually repeats but may differ in a detail not shown here. Equal entries are not always repeated.

Columns and labels:
RAW 264.7 cells [1] = assay: Whole cell inhibition assay for urea output; format: cell-based, murine; conditions: for urea % suppression of induced production: γIFN+LPS, 18 hours
Method: RAW 264.7 cells are plated in microculture wells at 1×10^6/ml in RPMI 1640 with 10% FBS and otherwise standard culture conditions and allowed to adhere for 5 hours. They are then activated with 25 U/ml γIFN and 0.1 μg/ml LPS in the presence of test inhibitors. The urea concentration present in the supernatant media, after 18 hours of culture, is determined by a colorimetric blood urea nitrogen diacetylmonoxime assay performed on an aliquot of the culture supernatant (Sigma Chem. Co., St. Louis, Mo.) and inhibition is expressed as the percentage urea compared to that of a parallel control culture treated identically except that the concentration of added inhibitor is zero.
Various concentrations of the test compounds are included in the media of the stimulated RAW 264.7 cells in culture. The concentration of urea and/or nitrite after 18 hours of activated culture is determined and compared to the uninhibited control value obtained from at least one parallel culture. The fractional reduction is calculated for each concentration of inhibitor and the IC50 (concentration giving 50% reduction) is interpolated. Compounds were dissolved in media with mild heat (60° C.). Those with limited solubility were dissolved in base. The concentration of stock solutions of those compounds which were not completely soluble was determined by OD280.

TNF = assay: Serum TNF levels after parenteral LPS; format: in vivo, rats; conditions: i.p. 2.0 hours prior to LPS; measured 2-3 hours after LPS
Method: Qualitatively similar data has been obtained by measurement of the serum TNF levels in rats stimulated to produce TNF by parenteral LPS administration. Rats were given Compound No. 14, i.p., 2.0 hours prior to LPS stimulation. The serum levels of TNF were measured at between 2 and 3 hours after LPS stimulation.

IL-6 = assay: Cytokine production by LPS/γIFN-stimulated human PBMC: IL-6; format: cell-based; conditions: γIFN+LPS, 18 hr
Description: Similar results concerning a variety of cytokines in addition to TNF, e.g., IL-6 and Macrophage Inflammatory Proteins-1α and -1β (MIP-1α and MIP-1β) were obtained using human peripheral blood as a source of monocytes. Human peripheral blood mononuclear cells (PBMC) were isolated using “FICOLL®”-based methods and plated in standard 6-well culture plates at a concentration of 10^6/well and allowed to adhere for from 2 hr to overnight whereupon non-adherent cells were washed out and the medium was then replaced with medium containing the compound to be tested. One hour later, the medium was supplemented so as to contain 25 U/ml γIFN and 0.1 μg/ml LPS and the cultures incubated a further 18 hr. The medium was then collected, and cell debris removed by centrifugation. This conditioned supernatant was then assayed for the presence of cytokines using the standard methodologies of L929 cell cytotoxicity bioassay and immunoassay (ELISA).

BALB/c mice = assay: LPS-induced lethality (endotoxic shock); format: in vivo
Method: Experiments were undertaken to evaluate the effects of Compound No. 14 in preventing the lethal toxicity of lipopolysaccharide (LPS). LPS was administered to induce 50% lethality within 72 hr in BALB/c mice (FIG. 10). BALB/c mice (19-21 g) were given LPS (E. coli 0111:B4; Sigma) in a dose of 13.75 mg/Kg by intraperitoneal injection (0.2 ml/mouse). Stock LPS solutions (10 mg/ml) were sonicated initially for 20 min, diluted in LPS-free water (1.375 mg/ml), then sonicated again for 10 min immediately prior to injection. Compound No. 14 (1 mg/Kg, i.p.) was administered 1.5 hr before LPS. Compound No. 14 injectate was free of LPS as measured by quantitative chromogenic Limulus amebocyte lysate test (BioWhittaker, Walkersville, Md.). Data points are from two groups consisting of 10 mice per group.
Data were subjected to statistical analysis using the z test for independent proportions. The difference bewteen control and Compound No. 14 is significant (one-tailed p value<0.05; z=1.95).

C3H/HeN mice = assay: Carrageenan-induced paw swelling; format: in vivo
Method: Paw edema was induced by injection of 50 microliters of 1% Lambda-carrageenan in HEPES 25 mM, pH 7.4, into the planter surface of the left hindpaw of C3H/HeN mice, the right paw was injected with 50 microliters of HEPES alone. The animals were divided into two groups: controls (n=3) received vehicle only, i.p. 1.5 hour before paw injection; the experimental group […] was treated with Compound No. 14, 5 mg/Kg, i.p. 1.5 hour before paw injection. Three hours after paw injection, paw thickness was measured using a caliper, and the data expressed as change of carrageenan paw vs HEPES paw thickness.
The results are summarized in Table V which contains the carrageenan-induced increase in paw thickness in mm of three control and three Compound No. 14 treated mice. The inhibition can also be reported as percent inhibition of swelling as defined by the standard formula: Percent inhibition=(1−(treated/control))×100. Calculation of this parameter for treated animals in which Compound No. 14 suppressed swelling yields a 70% inhibition.

RAW 264.7 cells [2] = assay: Whole cell inhibition assay for arginine uptake; format: cell-based, murine

Which “urea % suppression of induced production” value (RAW 264.7 cells [1]; dose 2 μM) does the source give for CC(=NNC(=N)N)c1cc(NC(=O)CCCCCCCCC(=O)Nc2cc(C(C)=NNC(=N)N)cc(C(C)=NNC(=N)N)c2)cc(C(C)=NNC(=N)N)c1.Cl.Cl.Cl.Cl [Compound 14, N,N′-bis(3,5-diacetyl-phenyl)decanediamide tetrakis(amidinohydrazone) tetrahydrochloride] here?
The value was 68%.

What about the “urea % suppression of induced production” value (RAW 264.7 cells [1]; dose 10 μM) of the same compound?
The value was 78%.

And the “urea % suppression of induced production” value (RAW 264.7 cells [1]; dose 50 μM)?
The value was 100%.

What about the “urea % suppression of induced production” value (RAW 264.7 cells [1]; dose 200 μM) of the same compound?
Its value is 100%.

What about the IC50 (RAW 264.7 cells [1]; interpolated, γIFN+LPS-activated RAW 264.7, 18 hours, read-out: I.C.50 (in parenthesis), inhibition of urea production) of the same compound?
The IC50 was 1 µM.

What about the “serum TNF level vs untreated controls” value (TNF) of the same compound?
The value was “about half the level of serum TNF”.

What about the “concentration that effectively inhibited production of IL-6” value (IL-6) of the same compound?
The value was 10 to 20 µM.

And the “Diarrhea after LPS” value (BALB/c mice; 1 mg/Kg i.p. 1.5 hr before LPS)?
Its value is “not suppressed”.

What about the “visible signs of LPS toxicity” value (BALB/c mice; 1 mg/Kg i.p. 1.5 hr before LPS) of the same compound?
The value was “markedly suppressed”.

What about the LPS-induced lethality (BALB/c mice; 1 mg/Kg i.p. 1.5 hr before LPS 13.75 mg/Kg i.p., 72 hr, p<0.05) of the same compound?
Its LPS-induced lethality is “reduced lethality”.

What about the “gross signs of systemic toxicity” value (BALB/c mice; animals receiving compound alone, 1 mg/Kg i.p.) of the same compound?
Its value is “no gross signs of systemic toxicity”.

What about the “CHANGE IN PAW THICKNESS (carrageenan paw vs HEPES paw)” value (C3H/HeN mice; 5 mg/Kg i.p. 1.5 hour before paw injection, three hours after, individual mice) of the same compound?
Its value is 0.54 mm and 0.41 mm and 0.4 mm.

And the “Percent inhibition of swelling” value (C3H/HeN mice; 5 mg/Kg i.p., (1−(treated/control))×100)?
The value was 70%.

What about the IC50 (RAW 264.7 cells [2]; stimulated 8 hours previously, then exposed 10 minutes in arginine-free buffer, mean±std. err., n=3, read-out: I.C.50 for arginine uptake) of the same compound?
The IC50 was 60 ± 15 µM.

What about the “sensitivity of arginine uptake of unstimulated cells” value (RAW 264.7 cells [2]; unstimulated RAW 264.7) of the same compound?
Its value is “insensitive”.
